Test results published in patent US7592023B2, “Transplant media” (Trophic Solutions LLC, priority 2000, dated 2009).

Legend:
[1] = system: primary kidney cell cultures; experiment: cytoskeletal structure (actin and tubulin antibodies, confocal fluorescence microscopy) after cold storage, primary kidney cell cultures; type: cell-based; conditions: three days at cold temperatures
Text: (§1) This Example describes the effect UW solution supplemented with BNP-1 on cytoskeletal structure of kidney cells. Briefly, either MDCK cells or primary kidney cell cultures were stored for three days at cold temperatures in either UW solution, UW solution supplemented with BNP-1, or DMEM. The cells were then labeled with actin and tubulin antibodies and analyzed by confocal fluorescence microscopy. […] In these primary cells, the actin and tubulin filaments maintained a coarse clumpy pattern with considerable cortical condensation near the plasma membrane and only a limited amount of fine fibrillar structure that would be considered more normal.

MDCK cells = experiment: cytoskeletal structure (actin and tubulin antibodies, confocal fluorescence microscopy) after cold storage, MDCK cells; type: cell-based; conditions: three days at cold temperatures
Text: as §1

[2] = system: bacteria, fungi, and enveloped viruses; conditions: cited from earlier work
[3] = system: panel of organisms in stationary growth phase; conditions: cited from earlier work

## BNP-1: bovine defensin peptide, SEQ ID NO: 37, rlcrivvirvcr; synthesized by Multiple Peptide Systems (RLCRIVVIRVCR; listed as Bos taurus)
[1]
  actin and tubulin after storage: the tubulin and actin were better stained and more persistent
MDCK cells
  actin and tubulin after storage: better maintenance of actin and tubulin

## GPNP: guinea pig defensin, rrcicttrtcrfpyrrlgtcifqnrvytfcc (RRCICTTRTCRFPYRRLGTCIFQNRVYTFCC; Guinea pig cytomegalovirus)
[2]
  spectrum of antimicrobial activity: broad spectrum antimicrobial properties verified

## HNP-1: defensin isolated from human PMN's, acycripaciagerrygtciyqgrlwafcc
[3]
  antimicrobial properties, rank among defensins tested: most potent antimicrobial properties

## rabbit NP-1: rabbit neutrophil defensin, vvcacrralclprerragfcrirgrihplccrr (VVCACRRALCLPRERRAGFCRIRGRIHPLCCRR; listed as Oryctolagus cuniculus)
[3]
  antimicrobial properties, rank among defensins tested: most potent antimicrobial properties
